Results from patent US20140364454A1, “METAL-CHELATING COMPOUNDS HAVING AT LEAST ONE POLYAMINO CHAIN” (UNIVERSITE DE RENNES I, priority 2011, published 2014).
Read-outs that look alike come from different tables or passages of the source.

Experiments:
Caco-2 cells [1] = assay: Cell viability of proliferating Caco-2 cells (number of nuclei); assay type: cell-based, human; details: for IC50: no exogenous iron; for Constituent 1 (1-10 μM) % cell / Constituent 2 (10-100 μM) % cell: Caco-2 J4, no exogenous iron
Description: (§1) The action of Quilamines on the cell viability was analyzed on enterocyte cells of the Caco-2 tumor cell line derived from human colon carcinoma and compared with the action of ICL670 in the presence or absence of exogenous iron, after activation (DFMO) or competitive inhibition by spermidine, of the PTS. The operating conditions used are identical to those used for CHO/CHO-MG and HepG2 cells.
The results for the measurement of the anti-proliferative effect of Quilamines, and of ICL670 on the proliferating cells (cytostatic constituent) when there is no exogenous iron have been listed in the table 4 below.

HepG2 cells = assay: Anti-proliferative effect on HepG2 cells (nuclei count or SDH activity); assay type: cell-based, human; details: 72 h; for IC50: HepG2, absence of exogenous iron, read-out: IC50 associated with the cytostatic effect; for % of HepG2 cells concerned by the anti-proliferative effect: absence of exogenous iron
Source text: The majority of the Quilamines, like ICL670, show biphase dose-effect curves in the absence of exogenous iron, with an anti-proliferative constituent for concentration values of 1 to 10 micromoles per liter and a cytotoxic constituent associated with a release of LDH for concentration values of over 10 micromoles per liter. The percentage of HepG2 cells concerned by the anti-proliferative effect and the values of IC50 associated with this cytostatic effect in the absence of exogenous iron were listed in the table 4 below.
The implication of PTS in the cytostatic and cytotoxic action of Quilamines was analyzed in proliferating HepG2 hepatocyte tumor cells after activation of PTS or competitive inhibition of PTS by spermidine, a polyamine naturally present in the organism and most efficaciously captured by the PTS. The conditions of treatment by Quilamines are identical to those described in paragraph III-1.
Inhibiting ornithine decarboxylase (ODC), the key enzyme in the biosynthesis of polyamines, causes a depletion of intra-cell polyamines and an activation of PTS which enables the deficiency to be met. This activation of PTS is done by means of the ODC inhibitor, alpha-difluoromethyl ornithine (DFMO).
The competitive inhibition of PTS by spermidine is prompted by the co-treatment of the cells by the Quilamines in the presence of spermidine, in a concentration of 50 micromoles per liter.

[2] = Calcein test: shift of iron(III) complexated with calcein; assay type: physicochemical; details: pH 7.4
Description: The Quilamines HQ1-34, HQ1-344, HQ1-343, HQ1-33, HQ1-333, HQ1-44, HQ1-43, HQ1-444, HQ1-443 according to the invention were synthesized and tested. For each Quilamine, its capacity to shift iron (III) complexated with calcein was tested. Calcein is a fluorescent molecule which has a pFe3+ value of 20.3 with pH 7.4 close to the value measured for ligands of low molecular weight present in human or animal cells and complexating the labile iron pool, such as citrate which has a pFe^3+ value of 19.3 with pH of 7.4 (LIP). The fluorescence of calcein is detected on a microplate, in a concentration of 0.1 micromole per liter, in solution in a HEPES buffer (4-(2-hydroxyethyl)-1-piperazine ethane sulfonic acid) with pH 7.4, in a Fusion (Packard) type a microplate fluorescence reader, under excitation at 450 nanometers and analysis of the fluorescence emission at 515 nanometers. The fluorescence of calcein is extinguished in the presence of iron(III) in the form of hydrochloride (chloride) with a concentration of 1 micromole per liter. The addition of Quilamine in different concentrations ranging from 0.01 to 40 micromoles per liter prompts the shifting of iron(III) complexated with calcein towards Quilamine, resulting in a restoration of the fluorescence of the calcein. The dose-effect curves expressing the percentage of restoration of fluorescence of calcein (relative to the fluorescence of the free molecule in the absence of iron), for each Quilamine concentration, makes it possible to deduce the Quilamine concentration prompting the 50% shift of Fe(III) from calcein and the restoration of its associated fluorescence (CE50). These concentration values CE50 are inversely proportional to the chelating capacity of the chelators and the aptitude to mobilize iron from the LIP of the organism.
Comparatively, measurements were made, under the same conditions, of the efficacy in shifting iron(III) complexated with calcein of the two prior-art chelators, 8-hydroxyquinoline and O-trensox, the latter being currently considered to be the chelator having the greatest affinity for iron.

Caco-2 cells [3] = assay: LDH release of Caco-2 cells; assay type: cell-based, human; details: for % LDH/control 10 μM: Caco-2 J4, 10 μM; for % LDH/control 100 μM: Caco-2 J4, 100 μM
Description: as §1
As in the case of the other cell lines in proliferative phase presented here above, the dose-effect curves of the action of the Quilamines on the number of viable cells (number of nuclei) are biphase curves with a cytostatic constituent for concentration values of below 30 micromoles per liter and a cytotoxic constituent with release of LDH for concentration values above 30 micromoles per liter. Only this second cytotoxic constituent is observed when the cells of the Caco-2 cell line are treated after confluence (stopping of the proliferation).

[4] = tested on: mutant cell line CHO-MG without PTS; assay: Anti-proliferative effect on CHO-MG cells without PTS, counting of cell nuclei; assay type: cell-based, hamster; details: for IC50: 72 h treatment; for Ratio IC50 (CHO-MG/CHO): selectivity of recognition by the PTS
Source text: The IC50 inhibitor concentration corresponding to the concentration in Quilamines enables the inhibition at 50% of the cell proliferation was deduced from the dose-effect curves of numeration of the nuclei of the living cells on the CHO and CHO-MG cell lines. These dose-effect curves are sometimes bi-phase curves as in the case of Quilamine HQ1-44 which has an anti-proliferative constituent (without concomitant release of LDH in supernatant) in the range of concentrations of 0.4 to 3 micromoles per liter and a second cytotoxic constituent accompanied by membrane toxicity expressed by the release of LDH for concentrations of over […]. The lower the value of IC50, the greater the efficiency of the anti-proliferative effect of the tested chelators.
Furthermore, the ratio of the IC50 inhibitor concentrations found for the CHO-MG and the CHO cell lines (Ratio IC50 (CHO-MG/CHO)) was computed for several Quilamines according to the invention. This ratio makes it possible to estimate the selectivity of recognition of the different chelators by the PTS: the higher the ratio, the more clearly is the chelator recognized by the PTS. When this ratio is close to 1, the tested chelator is not recognized or is little recognized by the PTS.

[5] = tested on: wild cell line (CHO) of hamster ovarian cells; assay: Anti-proliferative effect on CHO cells, counting of cell nuclei (Hoechst 33342); assay type: cell-based; details: 72 h treatment, no exogenous iron; read-out: IC50 CHO
Description: The in vitro efficacy of different Quilamines was tested on a wild cell line (CHO) of hamster ovarian cells having PTS and a mutant cell line CHO-MG without PTS. The two cell types CHO and CHO-MG were treated, 24 hours after being seeded in 96-well microplates, by concentrations of different Quilamines ranging from 0.1 to 400 micromoles per liter. The cytostatic (anti-proliferative) effects and cytotoxic effects of Quilamine after 72 hours' treatment of the cells were assessed respectively by counting cell nuclei after DNA marking by the Hoechst 33342 fluorescent intercalant dye and by analysis of membrane damage detected by the dosing of the lactate dehydrogenase activity (LHD) in the supernatants.
The IC50 inhibitor concentration corresponding to the concentration in Quilamines enables the inhibition at 50% of the cell proliferation was deduced from the dose-effect curves of numeration of the nuclei of the living cells on the CHO and CHO-MG cell lines. […] The lower the value of IC50, the greater the efficiency of the anti-proliferative effect of the tested chelators.
A comparison was made of the cytostatic or anti-proliferative action and the cytotoxic action for 72 h of treatment by Quilamine HQ1-44 and 8-hydroxyquinoline and ICL670, on the CHO cell lines in the presence and without the presence of exogenous iron, in the form of Fe(III) citrate in a concentration of 20 micromoles per liter. The results obtained are shown in FIG. 4, FIG. 4A relating to the results on cell viability and FIG. 4B relating to the results on cell toxicity.

[6] = Potentiometry: stability constants and pFe3+ of the iron complex; assay type: physicochemical; details: pH 7.4
Description: The complexation affinity of Quilamine with the metal ion in the organism reflects the chelating capacity or chelating power of Quilamine. This affinity can be assessed by measuring the value of pW corresponding to −log of the concentration in free metal ion W, i.e. non-complexated by the Quilamine for a ratio of respective concentrations of Quilamine (10 micromoles per liter) and metal ion (1 micromole per liter) equal to 10, at 25° C. and pH 7.4. The higher the value of pW, the greater the affinity of Quilamine with metal ion. The affinity of Quilamine with iron in its ferric form (Fe(III)) and its ferrous form (Fe(II)) is measured respectively by pFe^3+ and pFe^2+ at physiological pH (pH=7.4), at 25° C.
Potentiometry measurements were made in thermostated titration cells at 25±0.1° C., using a Metrohm 702 SM Titrino titrator connected to a Metrohm 6.0233.100. The ligand solution is prepared in a concentration of ˜1.5×10^−3 moles per liter, the solution of Fe^3+ is made from FeCl3 and titrated by complexation with a standard solution of EDTA (ethylenediaminetetracetic acid). The sample for the measurement contained approximately 0.03 millimoles per liter of ligand in a volume of 30 ml where the ionic strength is maintained at 0.1 mole per liter in using KNO3 as a support electrolyte. During the titrations, Fe^3+ is added to 0.45 or 0.9 equivalents of ligand. Each titration consists of 150-200 equilibrium points with pH varying from 2.0 to 11.5, and is repeated at least twice. The thermodynamic constants are computed with the software […] and the speciation diagram of the species is done by the Hyss program.

[7] = Caco-2 J4, cytostatic constituent, read-out: Constituent 1 (1-10 μM) IC50
[8] = Caco-2 J4, cytotoxic constituent, read-out: Constituent 2 (10-100 μM) IC50

Row | SMILES | IC50 (Caco-2 cells [1]; [7]) [µM] | IC50 (Caco-2 cells [1]; [8]) [µM] | Constituent 1 (1-10 μM) % cell (Caco-2 cells [1]) [%] | Constituent 2 (10-100 μM) % cell (Caco-2 cells [1]) [%] | IC50 (HepG2 cells) [µM] | % of HepG2 cells concerned by the anti-proliferative effect (HepG2 cells) [%] | chelating capacity of HQ1-3 type compared with HQ1-4 type Quilamines [2] | % LDH/control 10 μM (Caco-2 cells [3]) [%] | % LDH/control 100 μM (Caco-2 cells [3]) [%] | IC50 [4] [µM] | Ratio IC50 (CHO-MG/CHO) [4] | IC50 [5] [µM] | IC50 (Caco-2 cells [1]; Homo sapiens, Caco-2 J4, cytostatic constituent, read-out: Constituent 1 (1-10 μM) IC50) [µM] | IC50 (Caco-2 cells [1]; Homo sapiens, Caco-2 J4, cytotoxic constituent, read-out: Constituent 2 (10-100 μM) IC50) [µM] | IC50 (HepG2 cells; Homo sapiens) [µM] | pFe3+ [6]
1 | NCCCCNCCCNCc1ccc2cccc(O)c2n1 [HQ1-34] | 1 | 45 | 20 | 80 | 1.75 | 5 | better chelating capacity | 100 | 229 |  |  |  |  |  |  | 
2 | NCCCNCCCCNCCCCNCc1ccc2cccc(O)c2n1 [HQ1-443] | 1 | 35 | 5 | 95 | 2.25 | 17.5 |  | 88 | 189 | 258 | 13 | 20.2 |  |  |  | 
3 | NCCCNCCCCNCc1ccc2cccc(O)c2n1 [HQ1-43] | 1 | 30 | 7 | 93 | 1.75 | 10 |  | 93 | 240 |  |  |  |  |  |  | 
4 | NCCCCNCCCCNCCCCNCc1ccc2cccc(O)c2n1 [HQ1-444] | 2 | 75 | 60 | 40 | 4.75 | 10 |  | 99 | 118 | 240 | 38 | 6.3 |  |  |  | 
5 | NCCCNCCCCNCCCNCc1ccc2cccc(O)c2n1 [HQ1-343] | 2 | 40 | 30 | 70 | 2.15 | 12.5 | better chelating capacity | 89 | 255 |  |  |  |  |  |  | 
6 | NCCCCNCCCCNCCCNCc1ccc2cccc(O)c2n1 [HQ1-344] |  |  | 22 | 78 |  | 10 | better chelating capacity | 95 | 120 |  |  |  | 3 | 75 | 1.75 | 
7 | O=C(NCCN(CCNC(=O)c1cc(S(=O)(=O)O)c2cccnc2c1O)CCNC(=O)c1cc(S(=O)(=O)O)c2cccnc2c1O)c1cc(S(=O)(=O)O)c2cccnc2c1O [o-Trensox, reference compound] |  |  |  |  |  |  |  |  |  |  |  |  |  |  |  | 29.5
